Series [1] is described as follows: Pharmacokinetics study in mice (cassette). Format: in vivo. The note with it: female, Balb/c, plasma, mouse cassette PK. An excerpt:
Objective: To determine the drug concentration in the plasma of the mice at different times after intravenous and oral administration of the test compounds by LC/MS/MS using female Balb/c mice as the test animals. To investigate the pharmacokinetic performance of the test compounds in mice and to evaluate the pharmacokinetic characteristics.
Test animals: 4 healthy female Balb/c mice were divided into 2 groups according to the principle of similar weight, 2 in the IV group and 2 in the PO group. The animals were purchased from Shanghai Lingchang Biotechnology Co., Ltd.
IV group: Appropriate amounts of compounds were weighed respectively, prepared into 2 mg/mL solutions, then mixed to give a 0.5 mg/mL solution, which was stirred and ultrasonicated until a clear state. The vehicle was 15% HP-b-CD.
PO group: An appropriate amount of the IV group solution was taken and diluted to 0.4 mg/mL with 15% HP-b-CD.
Administration: After fasting overnight, the IV group was administered intravenously, and the dose of the test compound was 1 mg/kg; the PO group was administered intragastrically, and the dose of the test compound was 2 mg/kg.
Procedures: For IV group, 30 μL of blood was collected from the saphenous vein of the female Balb/c mice at 0.0833, 0.25, 0.5, 1, 2, 4, 8, and 24 hours post-dose, and placed in a commercial anticoagulant tube with EDTA-K2 added in advance. For PO group, 30 μL of blood was collected from the saphenous vein of the female Balb/c mice at 0.25, 0.5, 1, 2, 4, 8, 12 and 24 hours post-dose, and placed in a commercial anticoagulant tube with EDTA-K2 added in advance. The blood samples were centrifuged (3,200 g, 4° C., 10 minutes) to give plasma samples, which was transferred to a pre-cooled centrifuge tube, frozen in dry ice, and stored in an ultra-low temperature freezer at −60° C. or lower until the LC-MS/MS analysis. The animals were given free access to food 4 hours after the administration. LC/MS/MS method was used to determine the content of the test compounds in the plasma of mice after intravenous and oral administration. The linear range of the method is 2.00-2000 nM.

The next series relates to P-gp (human MDR1). Kind of series: MDR1-MDCK two-way permeability assay. Format: in vitro ADME, canine. The note with it: dog. The source says:
In this study, the MDR1-MDCKII cell line authorized by the Piet Borst Laboratory of the Netherlands Cancer Institute was used as the in vitro model. It is a Madin-Darby canine kidney cell transfected with human multiple drug resistance gene (MDR1). The cells can stably express the efflux transporter P-gp, so it is suitable for screening P-gp substrates or inhibitors and predicting the permeability of the compounds through barriers with high efflux effects in the duodenum, blood-brain barrier, […] and kidney units, etc. This study was intended to use MDR1-MDCK II cells for investigating the two-way permeability of the test compounds through the MDR1-MDCK II cell model.
Procedures: The standard conditions are as follows: • Test concentration: 2 μM (DMSO≤1%); • Replicate: n=2; • Direction: Two-way transport, including two directions: A→B and B→A; • Incubation time: single time point, 2.5 hours; • Transport buffer: HBSS buffer containing 10 mM Hepes, pH 7.4; Incubation condition: 37° C., 5% CO2.
After the incubation, sample solutions at the dosing end and the receiving end were collected and mixed with the cold acetonitrile solution containing the internal standard immediately. LC/MS/MS method was used to analyze the concentration of the test compounds in all samples (including the initial dosing solution, the dosing end samples and the receiving end samples). The apparent permeability coefficient, efflux ratio and other parameters were calculated.

The results in this text go back to patent US12221432B2, “Estrogen receptor antagonist” (CHIA TAI TIANQING PHARMACEUTICAL GROUP CO., LTD., priority 2018, dated 2025).

Where a name gives a salt, the structure may show the parent alone.

For the compound `CC/C(=C(/c1ccc(OCCNC/C=C/C(=O)N(C)C)nc1)c1[nH]c2ccccc2c1Cl)c1ccccc1` [Compound 3 monohydrochloride], in series [1] (iv, i.v. 1 mg/kg), the AUC(0-t) is 2.43 µM·h, the clearance stood at 12.9 mL/min/kg and the half-life is 3.37 h. Moreover, the Vd in series [1] (iv, i.v. 1 mg/kg, read-out: Vdss) was 3.46 L/kg. For the same compound, in series [1] (po, p.o. 2 mg/kg), the exposure AUC(0-t) was found to be 1.27 µM·h, the peak level (Cmax) was 224 nM, the Tmax was determined as 0.25 h and the bioavailability was found to be 26.1%. Besides, the half-life in series [1] (po, p.o. 2 mg/kg) was 8.12 h. Besides, in the series with P-gp (human MDR1) (MDCK-MDR1, A-B, pH 7.4), the Papp A→B at 2.5 h, 2 μM was 0.44 ×10⁻⁶ cm/s. This compound also displayed a Papp B→A at 2.5 h, 2 μM in the series on P-gp (human MDR1) (MDCK-MDR1, B-A, pH 7.4) of 1.93 ×10⁻⁶ cm/s. Moreover, in the series on P-gp (human MDR1) (MDCK-MDR1, pH 7.4, B-A/A-B), the efflux ratio at 2.5 h, 2 μM stood at 4.39.

The term AUC(0-t) denotes the area under the concentration-time curve up to a stated or last time point. The low end stands for low exposure, the high end for high exposure. For orientation: clearance means the rate of elimination divided by the concentration. Higher therefore signals a high capacity for elimination. In general, half-life refers to the time needed for the level to fall by half in the phase considered. What is called Cmax is the peak of the concentration-time curve. Usually Tmax stands for the time at which the peak concentration occurs. Usually bioavailability stands for the share of a dose that reaches the circulation, judged against a reference dose that is usually intravenous. High values mean good availability, low ones poor availability. What is called Papp A→B is how fast a substance crosses the layer from the apical side. High values mean ready permeation, low ones poor permeation. As a reminder, the Papp B→A is the apparent permeability from the basolateral to the apical side of a cell layer. What is called efflux ratio is the permeability from basolateral to apical divided by that in the opposite direction, in the common usage.
